Like-named read-outs stand apart in the source and are kept apart here.
Experiments:
Assay in all cases: DSF thermal shift, kinase panel
Type in all cases: binding
PKMYT1A = target: T1, PKMYT1A (Homo sapiens, UniProt Q99640); settings: 10 μM compound
T1 construct: purchased in-house (home-made panel, SGC-style construct names)
T1 sequence (Q99640 1-499): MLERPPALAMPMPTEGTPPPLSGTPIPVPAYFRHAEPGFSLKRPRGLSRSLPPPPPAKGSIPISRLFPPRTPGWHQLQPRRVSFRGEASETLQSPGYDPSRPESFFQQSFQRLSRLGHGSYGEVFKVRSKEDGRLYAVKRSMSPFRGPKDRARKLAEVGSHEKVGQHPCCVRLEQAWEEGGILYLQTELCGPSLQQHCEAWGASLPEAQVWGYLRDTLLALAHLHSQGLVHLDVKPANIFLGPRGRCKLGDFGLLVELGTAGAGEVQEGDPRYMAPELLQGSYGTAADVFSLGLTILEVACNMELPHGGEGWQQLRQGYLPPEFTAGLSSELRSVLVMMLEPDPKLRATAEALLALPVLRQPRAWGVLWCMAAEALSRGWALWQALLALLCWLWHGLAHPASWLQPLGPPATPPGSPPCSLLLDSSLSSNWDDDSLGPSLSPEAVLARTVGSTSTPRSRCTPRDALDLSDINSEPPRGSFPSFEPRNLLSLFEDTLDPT
Procedure: (§1) The corresponding dianilino-TDZs (1–5) were tested on a panel of 46 protein kinases representing the major kinome branches at a concentration of 10 μM using a Differential Scanning Fluorimetry (DSF). Only analogues 1–3 induced a significant (>2 °C) thermal shift when incubated with a subset of the proteins (Table 1).
(§2) Kinase selectivity assay—A home-made kinase panel was generated for the following enzymes: AAK1, BMP2K, BMX, BRAF, CAMK1D, CAMK1G, CAMKK1, CAMKK2B, CDC42BPA, CDK2, CDKL1, CHEK2, CLK1, CSNK1G1, CSNK1G3, CSNK2A1, DYRK1A, DYRK2A, EPHA2, GAK, GSG2, MAPK1, MAP2K7, MAPK14B, MAPK3, PHKG2, PIM1, PLK1, PKMYT1, PRPF4B, RPS6KA1A, RPS6KA5A, RPS6KA6A, SLK, SRPK1, SRPK2, STK3, STK6, STK10, STK17A, STK24, STK38L, TRIB2, TTK, VRK1 and VRK2. Proteins were produced in E. coli, purified in a Ni-chelate column, followed by overnight digestion using TEV protease (made in house with an N-terminal 6xHis tag) and dialysis to remove imidazole. To clear samples of uncleaved proteins and the TEV protease, samples were loaded on new Ni-chelate columns. The flow through was collected, concentrated and loaded to a HiLoad Superdex 200 16/600 column (GE Healthcare, Chicago, IL, USA) for final polishing and buffer exchange.
(§3) Starting from 100 µM protein stocks, our kinase panel enzymes were diluted to 1 µM in buffer 100 mM K2HPO4 pH 7.5 containing 150 mM NaCl, 10% glycerol and 5X dye (Applied Biosystems catalogue 4461806). The protein/dye mixture was transferred to a 384-well PCR microplate having 20 µL per well. Compounds in DMSO at 10 mM concentration were added in 20 nL volume, using a liquid handling device setup with a pin head, to make 10 µM compound concentration in the assay plate.
(§4) Protein thermal shift data was measured in a qPCR instrument (Applied Biosystems QuantStudio 6) programmed to equilibrate the plate at 25 °C for 5 min followed by ramping the temperature to 95 °C at a rate of 0.05 °C/s. Data was processed using Protein Thermal shift software (Applied Biosystems) by fitting experimental curves to a Boltzmann function to calculate differential thermal shifts (dTm) referenced to protein/dye in 0.2% DMSO.

VRK1 = target: T2, VRK1 (Homo sapiens, UniProt Q99986); settings: 10 μM compound
T2 construct: TEV-cleavable (cleaved yes); made in house; host or cells: E. coli
T2 sequence (Q99986 1-396): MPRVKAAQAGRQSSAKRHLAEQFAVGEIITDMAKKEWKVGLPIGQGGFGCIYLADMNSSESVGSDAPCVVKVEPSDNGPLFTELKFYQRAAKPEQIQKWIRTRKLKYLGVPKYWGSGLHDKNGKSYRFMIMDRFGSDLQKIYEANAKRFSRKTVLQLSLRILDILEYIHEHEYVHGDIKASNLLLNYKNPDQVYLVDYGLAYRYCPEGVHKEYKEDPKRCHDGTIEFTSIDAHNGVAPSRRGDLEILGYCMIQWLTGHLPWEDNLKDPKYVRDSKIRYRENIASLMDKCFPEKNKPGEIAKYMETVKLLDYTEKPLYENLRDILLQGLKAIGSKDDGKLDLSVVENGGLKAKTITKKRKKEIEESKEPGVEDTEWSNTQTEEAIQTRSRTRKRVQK
Procedure: as §1, §2, §3, §4

EPHA2A = target: T3, EPHA2A (Homo sapiens, UniProt P29317); settings: 10 μM compound
T3 construct: purchased in-house (home-made panel, SGC-style construct names)
Procedure: as §1, §2, §3, §4

CDKL1 = target: T4, CDKL1 (Homo sapiens, UniProt Q00532); settings: 10 μM compound
T4 construct: purchased in-house (home-made panel, SGC-style construct names)
Procedure: as §1, §2, §3, §4

CDK2 = target: T5, CDK2 (Homo sapiens, UniProt P24941); settings: 10 μM compound
T5 construct: purchased in-house (home-made panel, SGC-style construct names)
Procedure: as §1, §2, §3, §4

CSNK2A1 = target: T6, CSNK2A1 (Homo sapiens, UniProt P68400); settings: read-out: ΔTm
T6 construct: purchased in-house (home-made panel, SGC-style construct names)
Procedure: as §1, §2, §3, §4

CSNK1G1 = target: T7, CSNK1G1 (Homo sapiens, UniProt Q9HCP0); settings: 10 μM compound
T7 construct: purchased in-house (home-made panel, SGC-style construct names)
Procedure: as §1, §2, §3, §4

T7 sequence (Q9HCP0 whole entry): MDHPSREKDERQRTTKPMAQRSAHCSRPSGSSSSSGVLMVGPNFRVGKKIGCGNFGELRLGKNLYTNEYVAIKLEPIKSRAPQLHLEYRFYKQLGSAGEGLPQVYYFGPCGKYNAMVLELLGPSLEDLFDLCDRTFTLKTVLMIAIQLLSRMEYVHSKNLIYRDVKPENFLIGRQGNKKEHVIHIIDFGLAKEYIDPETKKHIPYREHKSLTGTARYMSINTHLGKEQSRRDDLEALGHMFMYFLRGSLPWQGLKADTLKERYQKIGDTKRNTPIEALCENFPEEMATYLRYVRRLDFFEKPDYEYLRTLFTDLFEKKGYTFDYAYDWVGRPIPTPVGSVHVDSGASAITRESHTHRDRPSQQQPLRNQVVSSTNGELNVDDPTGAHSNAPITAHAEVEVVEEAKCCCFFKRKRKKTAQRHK
T3 sequence (P29317 24-976): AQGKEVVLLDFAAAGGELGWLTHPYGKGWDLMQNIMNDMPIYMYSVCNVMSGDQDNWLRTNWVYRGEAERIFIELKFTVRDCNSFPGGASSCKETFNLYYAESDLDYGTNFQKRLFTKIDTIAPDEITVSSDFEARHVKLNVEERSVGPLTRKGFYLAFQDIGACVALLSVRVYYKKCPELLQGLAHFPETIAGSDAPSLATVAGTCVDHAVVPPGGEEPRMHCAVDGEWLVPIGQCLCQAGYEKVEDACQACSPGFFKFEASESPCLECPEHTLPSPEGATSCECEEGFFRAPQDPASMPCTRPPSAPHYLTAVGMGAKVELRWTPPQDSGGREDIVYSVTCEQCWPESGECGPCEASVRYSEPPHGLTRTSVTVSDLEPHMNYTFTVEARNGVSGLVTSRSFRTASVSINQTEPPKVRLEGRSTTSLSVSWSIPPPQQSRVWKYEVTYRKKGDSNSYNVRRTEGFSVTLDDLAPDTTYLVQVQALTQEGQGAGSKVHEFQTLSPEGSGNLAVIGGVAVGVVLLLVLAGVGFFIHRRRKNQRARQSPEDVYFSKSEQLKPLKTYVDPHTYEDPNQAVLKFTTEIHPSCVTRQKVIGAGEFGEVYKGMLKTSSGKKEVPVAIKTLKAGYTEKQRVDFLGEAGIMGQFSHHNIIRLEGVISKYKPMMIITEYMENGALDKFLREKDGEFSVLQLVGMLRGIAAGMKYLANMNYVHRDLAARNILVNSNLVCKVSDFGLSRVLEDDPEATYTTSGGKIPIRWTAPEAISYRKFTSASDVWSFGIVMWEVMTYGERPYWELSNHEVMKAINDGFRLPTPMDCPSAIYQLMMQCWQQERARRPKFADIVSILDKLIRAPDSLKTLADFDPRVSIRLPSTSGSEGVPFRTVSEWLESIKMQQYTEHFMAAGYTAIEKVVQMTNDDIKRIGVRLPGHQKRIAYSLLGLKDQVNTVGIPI
T6 sequence (P68400 whole entry): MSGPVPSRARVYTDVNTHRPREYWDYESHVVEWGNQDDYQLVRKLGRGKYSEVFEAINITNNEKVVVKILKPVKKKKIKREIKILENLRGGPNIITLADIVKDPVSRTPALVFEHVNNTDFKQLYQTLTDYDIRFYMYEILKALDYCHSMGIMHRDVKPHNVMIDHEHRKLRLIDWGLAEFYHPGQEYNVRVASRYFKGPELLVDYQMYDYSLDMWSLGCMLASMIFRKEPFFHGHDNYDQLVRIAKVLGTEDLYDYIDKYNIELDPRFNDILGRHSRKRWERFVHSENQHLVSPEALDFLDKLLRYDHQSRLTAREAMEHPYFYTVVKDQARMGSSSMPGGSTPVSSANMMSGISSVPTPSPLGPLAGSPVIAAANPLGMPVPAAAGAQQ
T4 sequence (Q00532 whole entry): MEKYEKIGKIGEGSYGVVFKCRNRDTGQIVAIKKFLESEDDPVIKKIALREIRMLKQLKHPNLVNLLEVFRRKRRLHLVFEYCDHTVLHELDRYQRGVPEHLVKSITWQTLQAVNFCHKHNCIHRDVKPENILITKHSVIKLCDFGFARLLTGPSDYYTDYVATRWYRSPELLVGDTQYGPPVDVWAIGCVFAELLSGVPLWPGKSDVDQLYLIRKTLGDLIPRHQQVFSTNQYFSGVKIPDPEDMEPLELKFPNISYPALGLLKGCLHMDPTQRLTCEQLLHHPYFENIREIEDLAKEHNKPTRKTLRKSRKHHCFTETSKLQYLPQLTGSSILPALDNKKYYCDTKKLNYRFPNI

Row | Compound | ΔTm at 10 µM (PKMYT1A) [°C] | ΔTm at 10 µM (VRK1) [°C] | ΔTm at 10 µM (EPHA2A) [°C] | ΔTm at 10 µM (CDKL1) [°C] | ΔTm at 10 µM (CDK2) [°C] | ΔTm at 10 µM (CSNK2A1; DSF, 10 μM compound) [°C] | ΔTm at 10 µM (CSNK1G1) [°C] | ΔTm at 10 µM (CSNK2A1) [°C]
1 | Cc1ccc(Nc2nsnc(Nc3cccc(C(N)=O)c3)c2=O)cc1O [Compound 1, 3-({5-[(3-Hydroxy-4-methylphenyl)amino]-4-oxo-4H-1,2,6-thiadiazin-3-yl}amino)benzamide] | 0 | -0.4 | 0.2 | 1.2 | 0.2 | -0.9 | -0.6 | 
2 | Cc1ccc(Nc2nsnc(Nc3ccc(C(N)=O)cc3)c2=O)cc1O [Compound 2, 4-({5-[(3-Hydroxy-4-methylphenyl)amino]-4-oxo-4H-1,2,6-thiadiazin-3-yl}amino)benzamide] | 3 | -0.7 | 0.5 | 1 | 2.7 |  | -1 | -0.2
3 | Cc1ccc(Nc2nsnc(Nc3ccc4c(c3)CS(=O)(=O)C4)c2=O)cc1O [Compound 3, 3-[(2,2-Dioxido-1,3-dihydrobenzo[c]thiophen-5-yl)amino]-5-[(3-hydroxy-4-methylphenyl)amino]-4H-1,2,6-thiadiazin-4-one] | 1.2 | -0.2 | 0.8 | 0.9 | 1.8 | -0.6 | -0.7 | 
4 | CNC(=O)c1ccccc1Nc1nsnc(Nc2cccc(CS(C)(=O)=O)c2)c1=O [Compound 4, N-Methyl-2-([5-({3-[(methylsulfonyl)methyl]phenyl}amino)-4-oxo-4H-1,2,6-thiadiazin-3-yl]-amino}-benzamide] | -0.3 | -0.3 | -0.1 | 0.5 | 0.2 | -0.4 | 0.3 | 
5 | CNC(=O)c1ccccc1Nc1nsnc(Nc2ccc(N3CCOCC3)cc2)c1=O [Compound 5, N-Methyl-2-({5-[(4-morpholinophenyl)amino]-4-oxo-4H-1,2,6-thiadiazin-3-yl}amino)benzamide] | -0.8 | -0.3 | 0 | 0.5 | -0.1 | -0.4 | 0 | 

Reference: PMC6019134, “1,2,6-Thiadiazinones as Novel Narrow Spectrum Calcium/Calmodulin-Dependent Protein Kinase Kinase 2 (CaMKK2) Inhibitors” (Molecules : A Journal of Synthetic Chemistry and Natural …, 2018)
